In brackets after ≈: the same amount, converted by molar mass. Several values for one entry are separate records, joined by “and”; a condition that tells them apart may be missing. Equal values may be shown once.
What was measured:
[1] = system: A549 human lung adenocarcinoma cells; test: MTT assay, in vitro cytotoxic activity on A549; assay type: cell-based; conditions: Homo sapiens, A549, 24 hour incubation, read-out: IC50 values (µg/mL) A549 cell line
Protocol: (§1) The in vitro cytotoxic effects of the compounds were determined with the MTT assay. For this purpose, MTT test was performed using A549 and CCD-19Lu cell lines. After the cell lines used in the invention were centrifuged following taking them out from liquid nitrogen (-196 °C), the cells were cultured in a CO2 incubator comprising 5% CO2 at 37 °C in flasks containing 10% fetal bovine serum (FBS), where CCD-19Lu cells were cultured with Dulbecco's Modified Eagle's Medium (DMEM) and A549 cells were cultured with Roswell Park Memorial Institute (RPMI). The cells that reach the sufficient number for the assay, were seeded to 96 well plates such that 2×10^3 cells were placed in each well and at the same time, components at concentrations of 1-500 µg/mL were added to cells and they were incubated at 37 °C. At the end of the 24 hour incubation period, the MTT powder (5 mg/mL in 1 × phosphate buffered saline (PBS)) was added to each well (20 µL). After a 2-4 h period under the same conditions, the medium was removed from the plate and 100 µL of DMSO was added to each well to dissolve the dye and kept for 10 minutes. Then the plates were read at a wavelength of 540 nm using ELx808-IU Bio-Tek plate reader. The control cell viability which was not treated with the components was accepted to be 100% and the viability rates of the cells were expressed as %. […] According to the results obtained, the dose range was extended until the IC50 value was determined. MTT assay is a frequently used method which measures the cytotoxic effects of the compounds on the cells by converting the yellow colored MTT stain into purple colored formazan crystals via the mitochondrial succinate dehydrogenase activity. In the cytotoxic activity tests of the compounds, A549 lung adenocarcinoma and CCDLu19 normal lung fibroblast cell lines were used.

[2] = system: CCD-19Lu normal lung fibroblast cells; test: MTT assay, in vitro cytotoxic activity on CCD-19Lu; assay type: cell-based; conditions: 24 hour incubation; for IC50: Homo sapiens, CCD 19Lu, read-out: IC50 values (µg/mL) CCDLul9 cell line
Protocol: as §1, with “determined.” for “determined. MTT assay is a frequently used method which measures the cytotoxic effects of the compounds on the cells by converting the yellow colored MTT stain into purple colored formazan crystals via the mitochondrial succinate dehydrogenase activity. In the cytotoxic activity tests of the compounds, A549 lung adenocarcinoma and CCDLu19 normal lung fibroblast cell lines were used.”
MTT assay is a frequently used method which measures the cytotoxic effects of the compounds on the cells by converting the yellow colored MTT stain into purple colored formazan crystals via the mitochondrial succinate dehydrogenase activity. In the cytotoxic activity tests of the compounds, A549 lung adenocarcinoma and CCDLu19 normal lung fibroblast cell lines were used.

Akt = Akt colorimetric in cell ELISA in A549 cells; assay type: cell-based, human; conditions: 24 hours
Protocol: After 10.000 cells were seeded in the wells, they were kept in the incubator for 24 hours. […] Briefly, the medium was removed from the wells and 100 µL of 4% formaldehyde was added. The plate was incubated in a fume hood for 15 minutes. Formaldehyde was removed and the plate was washed twice with 1X […] (TBS) such as to be 100 µL/well. 1X TBS was removed and 100 µL 1X permeabilization solution was added to each well and it was kept at room temperature for 15 minutes. After the 1X permeabilization solution was removed, the wells were washed with 100 µL 1X TBS once. 1X TBS was removed and 100 µL quenching solution was added to each well and it was kept at room temperature for 20 minutes. Afterwards, this solution was removed. The plate was washed 1 time with 1X TBS and 100 µL blocking solution was added to the wells and it was kept at room temperature for 30 minutes. At the end of this period, the blocking solution was removed and 50 µL primary antibody was added to the wells. The plate was sealed with a cover and it was incubated overnight at 4 °C. The primary antibody was removed and the plate wells were washed 3 times with 100 µL 1X washing solution. After the washing solution was removed, 100 µL diluted horseradish peroxidase (HRP) conjugate was added and it was incubated at room temperature for 30 minutes. Later on this conjugate was removed and 100 µL 3,3',5,5'-tetramethylbenzidine (TMB) […] was added to each well and the absorbance values were read at 450 nm for 30 minutes. The experiment was carried out in triplicate. The values of the blank wells were subtracted from the values of the untreated control and treated cells. The Akt activity% was determined as the relative absorbance of treated versus untreated control cells.

[3] = system: hepatocellular carcinoma (Hep3 B), human breast adenocarcinoma (MCF-7), human cervical carcinoma (HeLa); conditions: against all tested cancer cells; cited from earlier work
[4] = system: human colon epithelial (HT-29) cells; conditions: cited from earlier work
[5] = system: kidney fibroblast (BHK-21) cells; conditions: cited from earlier work
[6] = system: kidney cancer (OU-31) cell line; set-up: concentration or dose not given beside the values; conditions: cited from earlier work
A549 cells = conditions: cited from earlier work
lung cancer (H157) cells = conditions: cited from earlier work

Work on N#Cc1ccc(C2=Nn3c(CCc4ccc5c(c4)OCO5)nnc3SC2)cc1 [Compound 3, 3-[2-(1,3-Benzodioxole-5-yl)ethyl]-6-(4-cyanophenyl)-7H-[1,2,4]triazolo[3,4-b] [1,3,4]thiadiazine] yielded an IC50 [1] greater than 500 µg/mL and an IC50 [2] greater than 500 µg/mL.

COc1ccc(C2=Nn3c(CCc4ccc5c(c4)OCO5)nnc3SC2)cc1 [Compound 7, 3-[2-(1,3-Benzodioxole-5-yl)ethyl]-6-(4-methoxyphenyl)-7H-[1,2,4]triazolo[3,4-b] [1,3,4]thiadiazine] gave an IC50 [1] of 45.7 ± 5.51 µg/mL (≈ 116 µM) and an IC50 [2] of 44.3 ± 1.15 µg/mL (≈ 112 µM).

For CCn1c(-c2nonc2N)nc2c(C#CC(C)(C)O)ncc(OC[C@H]3CCCNC3)c21 [GSK690693, reference compound], the IC50 [1] was 6.75 ± 1.06 µg/mL (≈ 15.9 µM), the “Akt Inhibition%” value (Akt; IC50/2 concentration (9: 2.88; 11: 0.37; 12: 0.40; 14: 1.32; GSK690693: 3.34; Cisplatin: 11.50 µg/mL)) was 60.56±3.04% and the “Akt Inhibition%” value (Akt; IC50/4 concentration (9: 1.44; 11: 0.18; 12: 0.20; 14: 0.66; GSK690693: 1.69; Cisplatin: 5.75 µg/mL)) was 59.23±9.77%. For the same molecule, the “Akt Inhibition%” value (Akt; IC50 concentration (9: 5.75; 11: 0.73; 12: 0.80; 14: 2.63; GSK690693: 6.75; Cisplatin: 23.00 µg/mL)) was 61.67% and 61.67±1.21%.

For CCCCCC[C@@H](O)C/C=C\CCCCCCCc1nnc2n1N=C(c1ccccc1)CS2 [3-[(8Z,11R)-11-hydroxyheptadec-8-enyl]-6-phenyl-7H-1,2,4-triazolo[3,4-b]-1,3,4-thiadiazine], the IC50 [3] is given as less than 8.83 µM.

Clc1cccc(C2=Nn3c(CCc4ccc5c(c4)OCO5)nnc3SC2)c1 [Compound 13, 3-[2-(1,3-Benzodioxole-5-yl)ethyl]-6-(3-chlorophenyl)-7H-[1,2,4]triazolo[3,4-b][1,3,4]thiadiazine] gave an IC50 [1] greater than 500 µg/mL and an IC50 [2] greater than 500 µg/mL.

For CCCCC/C=C\CC[C@H](O)CCCCCCCc1nnc2n1N=C(c1ccccc1)CS2 [3-[(8R,11Z)-8-hydroxyheptadec-11-enyl]-6-phenyl-7H-1,2,4-triazolo[3,4-b]-1,3,4-thiadiazine], the IC50 [3] is given as less than 8.83 µM.

For Brc1ccc(C2=Nn3c(CCc4ccc5c(c4)OCO5)nnc3SC2)cc1 [Compound 6, 3-[2-(1,3-Benzodioxole-5-yl)ethyl]-6-(4-bromophenyl)-7H-[1,2,4]triazolo[3,4-b] [1,3,4]thiadiazine], the IC50 [1] was 307 ± 58.6 µg/mL (≈ 692 µM) and the IC50 [2] was less than 3.9 µg/mL.

c1ccc(C2=Nn3c(CCc4ccc5c(c4)OCO5)nnc3SC2)cc1 [Compound 1, 3-[2-(1,3-Benzodioxole-5-yl)ethyl]-6-phenyl-7H-[1,2,4]triazolo[3,4-b][1,3,4]thiadiazine] showed an IC50 [1] of 103 ± 11.5 µg/mL (≈ 284 µM) and an IC50 [2] of less than 3.9 µg/mL.

In the case of CS(=O)(=O)c1ccc(Cc2nnc3n2N=C(c2ccc(-c4ccccc4)cc2)CS3)cc1 [6-(biphenyl-4-yl)-3-(4-(methylsulfonyl)benzyl)-7H-[1,2,4]triazolo[3,4-b][1,3,4]thiadiazine], the IC50 [4] is given as 12.5 µM.

For c1ccc2cc(C3=Nn4c(CCc5ccc6c(c5)OCO6)nnc4SC3)ccc2c1 [Compound 10, 3-[2-(1,3-Benzodioxole-5-yl)ethyl]-6-(naphthalene-2-yl)-7H-[1,2,4]triazolo [3,4-b][1,3,4]thiadiazine], the IC50 [1] was 4.1 ± 0.14 µg/mL (≈ 9.89 µM), the “IC50 values (µg/mL) CCDLul9 cell line” value [2] was less than 3.90 µg/mL and the IC50 [2] was less than 3.9 µg/mL.

In the case of CS(=O)(=O)c1ccc(Cc2nnc3n2N=C(c2ccccc2)CS3)cc1 [3-(4-(methylsulfonyl)benzyl)-6-phenyl-7H-[1,2,4]triazolo[3,4-b][1,3,4]thiadiazine], the IC50 [4] is listed as 25 µM.

Work on O=[N+]([O-])c1ccc(C2=Nn3c(CCc4ccc5c(c4)OCO5)nnc3SC2)cc1 [Compound 2, 3-[2-(1,3-Benzodioxole-5-yl)ethyl]-6-(4-nitrophenyl)-7H-[1,2,4]triazolo[3,4-b][1,3,4]thiadiazine] yielded an IC50 [1] of 380 ± 70.7 µg/mL (≈ 928 µM) and an IC50 [2] of 3.93 ± 0.06 µg/mL (≈ 9.6 µM).

With c1csc(-c2ccc(C3=Nn4c(CCc5ccc6c(c5)OCO6)nnc4SC3)cc2)c1 [Compound 15, 3-[2-(1,3-Benzodioxole-5-yl)ethyl] -6-(4-(thiophen-2-yl)phenyl)-7H-[1,2,4] triazolo [3,4-b] [1,3,4]thiadiazine] the IC50 [1] was 4 ± 0.2 µg/mL (≈ 8.96 µM), the “IC50 values (µg/mL) CCDLul9 cell line” value [2] was less than 3.90 µg/mL and the IC50 [2] was less than 3.9 µg/mL.

In the case of COc1cccc(C2=Nn3c(nnc3-c3ccncc3)SC2)c1 [6-(3-Methoxyphenyl)-3-(pyridine-4-yl)-7H-[1,2,4]triazolo[3,4-b][1,3,4]thiadiazine], the inhibition [5] is listed as 73.3%.

Work on Fc1ccc(C2=Nn3c(CCc4ccc5c(c4)OCO5)nnc3SC2)cc1 [Compound 4, 3-[2-(1,3-Benzodioxole-5-yl)ethyl]-6-(4-fluorophenyl)-7H-[1,2,4]triazolo[3,4-b] [1,3,4]thiadiazine] yielded an IC50 [1] of 325 ± 35.4 µg/mL (≈ 850 µM) and an IC50 [2] greater than 500 µg/mL.

Work on Clc1ccc(C2=Nn3c(CCc4ccc5c(c4)OCO5)nnc3SC2)cc1 [Compound 5, 3-[2-(1,3-Benzodioxole-5-yl)ethyl]-6-(4-chlorophenyl)-7H-[1,2,4]triazolo[3,4-b] [1,3,4]thiadiazine] yielded an IC50 [1] greater than 500 µg/mL and an IC50 [2] of less than 3.9 µg/mL.

In the case of O=C(CSc1nnc2n1N=C(c1ccc(Br)cc1)CS2)c1ccc(Br)cc1 [1-(4-bromophenyl)-2-((6-(4-bromophenyl)-7H-[1,2,4]triazolo[3,4-b][1,3,4]thiadiazine-3-yl)thio)ethanone], the growth [6] is listed as 46.76%, the inhibition [6] is listed as 53.24% and the growth (A549 cells) is listed as 58.58%. The inhibition (A549 cells) was 41.42%.

For O=C(CSc1nnc2n1N=C(c1ccc(F)cc1)CS2)c1ccc(F)cc1 [1-(4-fluorophenyl)-2-((6-(4-fluorophenyl)-7H-[1,2,4]triazolo[3,4-b][1,3,4]thiadiazine-3-yl)thio)ethanone], the growth [6] is given as 47.42% and the inhibition [6] is given as 52.58%.

Cc1ccc(C2=Nn3c(CCc4ccc5c(c4)OCO5)nnc3SC2)cc1 [Compound 8, 3-[2-(1,3-Benzodioxole-5-yl)ethyl]-6-(4-methylphenyl)-7H-[1,2,4] triazolo [3,4-b] [1,3,4]thiadiazine] gave an IC50 [1] greater than 500 µg/mL and an IC50 [2] of 14.7 ± 6.43 µg/mL (≈ 38.8 µM).

For Cc1ccc(C2=Nn3c(nnc3-c3ccncc3)SC2)cc1 [3-(pyridine-4-yl)-6-(p-tolyl)-7H-[1,2,4]triazolo[3,4-b][1,3,4]thiadiazine], the inhibition [5] is given as 72.6%.

For Clc1ccc(C2=Nn3c(nnc3-c3cccnc3)SC2)cc1Cl [6-(3,4-Dichlorophenyl)-3-(pyridine-3-yl)-7H-[1,2,4]triazolo[3,4-b][1,3,4]thiadiazine], the IC50 (lung cancer (H157) cells) is listed as 0.96 ± 0.43 µM.

From patent EP3958980B1, “TARGETED NOVEL TRIAZOLOTHIADIAZINE DERIVATIVES FOR THE TREATMENT OF LUNG CANCER” (Anadolu Universitesi, priority 2020, dated 2021)
